Experiments:
Mus musculus [1] = organism: Mus musculus; experiment: Reduction in serum uric acid level in acute hyperuricemia state Kunming mouse model assessed as SUA level; type: functional
Mus musculus [2] = organism: Mus musculus; experiment: Reduction in serum uric acid level in acute hyperuricemia state Kunming mouse model assessed as SUA level by measuring decrease ratio relative to control; type: functional; parameters: concentration or dose not given beside the values
[3] = molecular target: T1, Solute carrier family 22 member 12 (Homo sapiens, UniProt Q96S37); experiment: Inhibition of human URAT1 expressed in HEK293T cells using 14C- uric acid assessed as uric acid absorption by measuring intracellular liquid radiation value by liquid scintillation counting analysis; type: cell-based
T1 sequence (Q96S37 whole entry): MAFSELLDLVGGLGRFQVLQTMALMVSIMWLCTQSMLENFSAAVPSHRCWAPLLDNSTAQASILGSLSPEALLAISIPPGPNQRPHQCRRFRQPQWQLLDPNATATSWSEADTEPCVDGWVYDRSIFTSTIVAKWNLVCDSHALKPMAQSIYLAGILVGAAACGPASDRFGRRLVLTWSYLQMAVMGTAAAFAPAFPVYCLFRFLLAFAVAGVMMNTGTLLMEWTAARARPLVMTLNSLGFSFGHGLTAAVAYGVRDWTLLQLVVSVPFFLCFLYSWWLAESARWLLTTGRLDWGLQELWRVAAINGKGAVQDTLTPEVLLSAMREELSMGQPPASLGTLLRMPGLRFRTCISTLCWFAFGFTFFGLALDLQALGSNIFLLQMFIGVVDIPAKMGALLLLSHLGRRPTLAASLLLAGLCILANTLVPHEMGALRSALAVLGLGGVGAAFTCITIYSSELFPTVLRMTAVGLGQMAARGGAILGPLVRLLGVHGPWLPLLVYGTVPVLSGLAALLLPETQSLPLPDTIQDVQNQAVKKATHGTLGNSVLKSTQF

COc1cc2nc(SC(C)(C)C(=O)O)nc(Nc3ccc(C4CC4)c4ccccc34)c2cc1OC gave an Activity (Mus musculus [1]) of 976.2 µM and an Activity (Mus musculus [2]) of 7.8%.

Work on CC(C)(Sc1nc(Nc2ccc(C3CC3)c3ccccc23)c2sccc2n1)C(=O)O yielded an Activity (Mus musculus [1]) of 425.4 µM and an Activity (Mus musculus [2]) of 68.5%.

Molecule CC(Sc1nc2c(c(Nc3ccc(C4CC4)c4ccccc34)n1)COC2)C(=O)O (stereo not given) has an Activity (Mus musculus [1]) of 994.41 µM and an Activity (Mus musculus [2]) of 4.5%.

CC(Sc1nc(Nc2ccc(C3CC3)c3ccccc23)c2ccsc2n1)C(=O)O (stereo not given) gave an Activity (Mus musculus [1]) of 884 µM and an Activity (Mus musculus [2]) of 20%.

Work on O=C(O)C1(Sc2nccc(Nc3ccc(C4CC4)c4ccccc34)n2)CCC1 yielded an Activity (Mus musculus [1]) of 537.8 µM and an Activity (Mus musculus [2]) of 58.7%.

O=C(O)CCCSc1nc2c(c(Nc3ccc(C4CC4)c4ccccc34)n1)SCC2 showed an Activity (Mus musculus [1]) of 514.4 µM and an Activity (Mus musculus [2]) of 62%.

O=C(O)CCSc1nc2c(c(Nc3ccc(C4CC4)c4ccccc34)n1)SCC2 showed an Activity (Mus musculus [1]) of 1013.8 µM and an Activity (Mus musculus [2]) of 3.54%.

O=C(O)CSc1nc2c(c(Nc3ccc(C4CC4)c4ccccc34)n1)SCC2 showed an Activity (Mus musculus [1]) of 285.8 µM and an Activity (Mus musculus [2]) of 88.8%.

Work on O=C(O)C1(Sc2nc(Nc3ccc(C4CC4)c4ccccc34)c3ccc(F)cc3n2)CCC1 yielded an Activity (Mus musculus [1]) of 734.6 µM and an Activity (Mus musculus [2]) of 33%.

COc1cc2nc(SCCCC(=O)O)nc(Nc3ccc(C4CC4)c4ccccc34)c2cc1OC gave an Activity (Mus musculus [1]) of 465.4 µM and an Activity (Mus musculus [2]) of 62.3%.

For O=C(O)CSc1nc2c(c(Nc3ccc(C4CC4)c4ccccc34)n1)CCC2, the Activity (Mus musculus [1]) was 831.4 µM and the Activity (Mus musculus [2]) was 24.9%.

Molecule O=C(O)CCSc1nccc(Nc2ccc(C3CC3)c3ccccc23)n1 has an Activity (Mus musculus [1]) of 880.2 µM and an Activity (Mus musculus [2]) of 24.6%.

O=C(O)CCCSc1nc2c(c(Nc3ccc(C4CC4)c4ccccc34)n1)CCC2 showed an Activity (Mus musculus [1]) of 851 µM and an Activity (Mus musculus [2]) of 22.6%.

In the case of O=C(O)CCSc1nc(Nc2ccc(C3CC3)c3ccccc23)c2ccc(F)cc2n1, the Activity (Mus musculus [1]) is reported as 912.4 µM and the Activity (Mus musculus [2]) is reported as 13.5%.

O=C(O)CCCSc1nc(Nc2ccc(C3CC3)c3ccccc23)c2ccsc2n1 showed an Activity (Mus musculus [1]) of 225 µM and an Activity (Mus musculus [2]) of 89.6%.

Molecule COc1cc2nc(SCC(=O)O)nc(Nc3ccc(C4CC4)c4ccccc34)c2cc1OC has an Activity (Mus musculus [1]) of 193.4 µM, an Activity (Mus musculus [2]) of 91.3% and an IC50 [3] of 4.86 µM.

CC(Sc1nc2c(c(Nc3ccc(C4CC4)c4ccccc34)n1)SCC2)C(=O)O (stereo not given) gave an Activity (Mus musculus [1]) of 1114.8 µM.

For CC(C)(Sc1nc2c(c(Nc3ccc(C4CC4)c4ccccc34)n1)SCC2)C(=O)O, the Activity (Mus musculus [1]) was 297.2 µM and the Activity (Mus musculus [2]) was 87.5%.

CC(C)(Sc1nc(Nc2ccc(C3CC3)c3ccccc23)c2ccccc2n1)C(=O)O gave an Activity (Mus musculus [1]) of 200.8 µM, an Activity (Mus musculus [2]) of 92.2% and an IC50 [3] of 4.35 µM.

CC(C)(Sc1nc(Nc2ccc(C3CC3)c3ccccc23)c2ccsc2n1)C(=O)O gave an Activity (Mus musculus [1]) of 447.2 µM and an Activity (Mus musculus [2]) of 66.2%.

O=C(O)CSc1nc(Nc2ccc(C3CC3)c3ccccc23)c2sccc2n1 showed an Activity (Mus musculus [1]) of 1062.6 µM and an Activity (Mus musculus [2]) of 1.1%.

O=C(O)CCCSc1nccc(Nc2ccc(C3CC3)c3ccccc23)n1 was tested, and the Activity (Mus musculus [1]) was 198.2 µM, the Activity (Mus musculus [2]) was 92.4% and the IC50 [3] was 4.73 µM.

O=C(O)C1(Sc2nc3c(c(Nc4ccc(C5CC5)c5ccccc45)n2)SCC3)CCC1 gave an Activity (Mus musculus [1]) of 1014.8 µM and an Activity (Mus musculus [2]) of 3.42%.

Work on O=C(O)CSc1nc(Nc2ccc(C3CC3)c3ccccc23)c2ccccc2n1 yielded an Activity (Mus musculus [1]) of 294.2 µM and an Activity (Mus musculus [2]) of 82.9%.

With O=C(O)CSc1nc(Nc2ccc(C3CC3)c3ccccc23)c2ccsc2n1 the Activity (Mus musculus [1]) was 368.2 µM and the Activity (Mus musculus [2]) was 74.5%.

CC(Sc1nc(Nc2ccc(C3CC3)c3ccccc23)c2ccc(F)cc2n1)C(=O)O (stereo not given) showed an Activity (Mus musculus [1]) of 482.4 µM and an Activity (Mus musculus [2]) of 60.7%.

O=C(O)CCCSc1nc2c(c(Nc3ccc(C4CC4)c4ccccc34)n1)COC2 was tested, and the Activity (Mus musculus [1]) was 1120.8 µM.

Work on CC(C)(Sc1nc2c(c(Nc3ccc(C4CC4)c4ccccc34)n1)COC2)C(=O)O yielded an Activity (Mus musculus [1]) of 1040 µM.

For CC(Sc1nc2c(c(Nc3ccc(C4CC4)c4ccccc34)n1)CCC2)C(=O)O (stereo not given), the Activity (Mus musculus [1]) was 594.6 µM and the Activity (Mus musculus [2]) was 52.6%.

In the case of O=C(O)C1(Sc2nc3c(c(Nc4ccc(C5CC5)c5ccccc45)n2)CCC3)CCC1, the Activity (Mus musculus [1]) is reported as 614.6 µM and the Activity (Mus musculus [2]) is reported as 50.3%.

O=C(O)CSc1nc(Nc2ccc(C3CC3)c3ccccc23)c2ccc(F)cc2n1 was tested, and the Activity (Mus musculus [1]) was 210.4 µM and the Activity (Mus musculus [2]) was 90.6%.

Work on O=C(O)C1(Sc2nc(Nc3ccc(C4CC4)c4ccccc34)c3ccccc3n2)CCC1 yielded an Activity (Mus musculus [1]) of 608.8 µM and an Activity (Mus musculus [2]) of 51.6%.

Molecule CC(Sc1nc(Nc2ccc(C3CC3)c3ccccc23)c2ccccc2n1)C(=O)O (stereo not given) has an Activity (Mus musculus [1]) of 911.8 µM and an Activity (Mus musculus [2]) of 21.5%.

Molecule COc1cc2nc(SCCC(=O)O)nc(Nc3ccc(C4CC4)c4ccccc34)c2cc1OC has an Activity (Mus musculus [1]) of 828 µM and an Activity (Mus musculus [2]) of 23.6%.

Molecule COc1cc2nc(SC(C)C(=O)O)nc(Nc3ccc(C4CC4)c4ccccc34)c2cc1OC (stereo not given) has an Activity (Mus musculus [1]) of 1039.4 µM and an Activity (Mus musculus [2]) of 1%.

In the case of O=C(O)CCSc1nc2c(c(Nc3ccc(C4CC4)c4ccccc34)n1)COC2, the Activity (Mus musculus [1]) is reported as 797.6 µM and the Activity (Mus musculus [2]) is reported as 26.1%.

O=C(O)C1(Sc2nc(Nc3ccc(C4CC4)c4ccccc34)c3ccsc3n2)CCC1 was tested, and the Activity (Mus musculus [1]) was 734.6 µM and the Activity (Mus musculus [2]) was 35.8%.

CC(C)(Sc1nccc(Nc2ccc(C3CC3)c3ccccc23)n1)C(=O)O showed an Activity (Mus musculus [1]) of 212.6 µM, an Activity (Mus musculus [2]) of 91% and an IC50 [3] of 2.51 µM.

COc1cc2nc(SC3(C(=O)O)CCC3)nc(Nc3ccc(C4CC4)c4ccccc34)c2cc1OC showed an Activity (Mus musculus [1]) of 214.4 µM and an Activity (Mus musculus [2]) of 89.1%.

With CC(C)(Sc1nc2c(c(Nc3ccc(C4CC4)c4ccccc34)n1)CCC2)C(=O)O the Activity (Mus musculus [1]) was 256.6 µM, the Activity (Mus musculus [2]) was 92.2% and the IC50 [3] was 3.96 µM.

With O=C(O)C1(Sc2nc3c(c(Nc4ccc(C5CC5)c5ccccc45)n2)COC3)CCC1 the Activity (Mus musculus [1]) was 1021.4 µM and the Activity (Mus musculus [2]) was 1.5%.

CC(C)(Sc1nc(Nc2ccc(C3CC3)c3ccccc23)c2ccc(F)cc2n1)C(=O)O gave an Activity (Mus musculus [1]) of 284.8 µM and an Activity (Mus musculus [2]) of 82.4%.

O=C(O)CCSc1nc(Nc2ccc(C3CC3)c3ccccc23)c2sccc2n1 was tested, and the Activity (Mus musculus [1]) was 209.6 µM, the Activity (Mus musculus [2]) was 91.3% and the IC50 [3] was 2.75 µM.

Molecule O=C(O)CSc1nccc(Nc2ccc(C3CC3)c3ccccc23)n1 has an Activity (Mus musculus [1]) of 442.4 µM and an Activity (Mus musculus [2]) of 68.2%.

With CC(Sc1nc(Nc2ccc(C3CC3)c3ccccc23)c2sccc2n1)C(=O)O (stereo not given) the Activity (Mus musculus [1]) was 412 µM and the Activity (Mus musculus [2]) was 69.9%.

O=C(O)CCSc1nc(Nc2ccc(C3CC3)c3ccccc23)c2ccsc2n1 was tested, and the Activity (Mus musculus [1]) was 196.4 µM and the Activity (Mus musculus [2]) was 92.7%.

O=C(O)CCSc1nc(Nc2ccc(C3CC3)c3ccccc23)c2ccccc2n1 gave an Activity (Mus musculus [1]) of 276.2 µM and an Activity (Mus musculus [2]) of 84.7%.

O=C(O)C1(Sc2nc(Nc3ccc(C4CC4)c4ccccc34)c3sccc3n2)CCC1 gave an Activity (Mus musculus [1]) of 744 µM and an Activity (Mus musculus [2]) of 34.8%.

In the case of O=C(O)CCCSc1nc(Nc2ccc(C3CC3)c3ccccc23)c2ccccc2n1, the Activity (Mus musculus [1]) is reported as 478.2 µM and the Activity (Mus musculus [2]) is reported as 64.6%.

In the case of O=C(O)CSc1nc2c(c(Nc3ccc(C4CC4)c4ccccc34)n1)COC2, the Activity (Mus musculus [1]) is reported as 1014.4 µM and the Activity (Mus musculus [2]) is reported as 2.3%.

O=C(O)CCCSc1nc(Nc2ccc(C3CC3)c3ccccc23)c2ccc(F)cc2n1 gave an Activity (Mus musculus [1]) of 944.6 µM and an Activity (Mus musculus [2]) of 9.9%.

In the case of O=C(O)CCSc1nc2c(c(Nc3ccc(C4CC4)c4ccccc34)n1)CCC2, the Activity (Mus musculus [1]) is reported as 226.6 µM, the Activity (Mus musculus [2]) is reported as 95.7% and the IC50 [3] is reported as 3.75 µM.

CC(Sc1nccc(Nc2ccc(C3CC3)c3ccccc23)n1)C(=O)O (stereo not given) gave an Activity (Mus musculus [1]) of 234 µM and an Activity (Mus musculus [2]) of 88.9%.
